In patent US7544698B2, “Indoles and benzoimidazoles as modulators of the histamine H4 receptor” (Janssen Pharmaceutica, N.V., priority 2006, dated 2009) one finds Ki data, which are given here for 32 compounds.

Counter-ions that a name gives are not always drawn.

The target in this assay is T1, human histamine H4 receptor (Homo sapiens, UniProt Q9H3N8).
T1 construct: expressed in transfected cells; host or cells: SK-N-MC cells or COS7 cells, transiently transfected with pH4R; cell membranes
T1 sequence (Q9H3N8 whole entry): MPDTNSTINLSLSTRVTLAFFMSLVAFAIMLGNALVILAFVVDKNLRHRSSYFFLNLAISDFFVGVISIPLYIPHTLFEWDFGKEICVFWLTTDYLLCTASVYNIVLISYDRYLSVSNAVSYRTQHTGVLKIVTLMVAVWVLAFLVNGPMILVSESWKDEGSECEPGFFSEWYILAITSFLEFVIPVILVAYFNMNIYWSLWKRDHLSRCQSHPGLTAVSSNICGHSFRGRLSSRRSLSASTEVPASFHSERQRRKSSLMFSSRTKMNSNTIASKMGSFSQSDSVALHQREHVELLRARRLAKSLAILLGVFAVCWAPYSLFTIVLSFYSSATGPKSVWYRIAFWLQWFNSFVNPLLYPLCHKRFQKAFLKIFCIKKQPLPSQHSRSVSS
The assay is described as follows: Binding Assay on Recombinant Human Histamine H4 Receptor (3H-histamine competition, membranes of transfected SK-N-MC or COS7 cells). The following applies: competition with 3H-histamine (5 nM ligand, KD 5 nM), Cheng-Prusoff; mean of results; > = solubility limit or highest concentration tested. As for the experimental part: Binding Assay on Recombinant Human Histamine H4 Receptor
SK-N-MC cells or COS7 cells were transiently transfected with pH4R and grown in 150 cm^2 tissue culture dishes. Cells were washed with saline solution, scraped with a cell scraper and collected by centrifugation (1000 rpm, 5 min). Cell membranes were prepared by homogenization of the cell pellet in 20 mM Tris-HCl with a polytron tissue homogenizer for 10 sec at high speed. Homogenate was centrifuged at 1000 rpm for 5 min at 4° C. The supernatant was then collected and centrifuged at 20,000×g for 25 min at 4° C. The final pellet was resuspended in 50 mM Tris-HCl. […] Incubation occurred at room temperature for 45 min. Membranes were harvested by rapid filtration over Whatman GF/C filters and washed 4 times with ice-cold 50 mM Tris HCl. Filters were then dried, mixed with scintillant and counted for radioactivity. SK-N-MC or COS7 cells expressing human histamine H4 receptor were used to measure the affinity of binding of other compounds and their ability to displace ^3H-ligand binding by incubating the above-described reaction in the presence of various concentrations of inhibitor or compound to be tested.
Turning to `O=C(c1cc2ccccc2[nH]1)N1C[C@H]2CCCN[C@H]2C1` (relative stereo) [Example 5, cis-(1H-Indol-2-yl)-(octahydro-pyrrolo[3,4-b]pyridin-6-yl)-methanone trifluoroacetic acid salt], the inhibition constant (Ki) stood at 40 nM.

`O=C(c1nc2cc(Cl)ccc2[nH]1)N1C[C@H]2CCCN[C@H]2C1` (relative stereo) [Example 7, cis-(5-Chloro-1H-benzoimidazol-2-yl)-(octahydro-pyrrolo[3,4-b]pyridin-6-yl)-methanone]: the Ki worked out at 20 nM.

For the compound `O=C(c1cc2cc(Cl)ccc2[nH]1)N1C[C@H]2CCCN[C@H]2C1` (relative stereo) [Example 10, cis-(5-Chloro-1H-indol-2-yl)-(octahydro-pyrrolo[3,4-b]pyridin-6-yl)-methanone], the Ki worked out at 8 nM.

On to `O=C(c1cc2cc(F)ccc2[nH]1)N1C[C@H]2CCCN[C@H]2C1` (relative stereo) [Example 13, cis-(5-Fluoro-1H-indol-2-yl)-(octahydro-pyrrolo[3,4-b]pyridin-6-yl)-methanone hydrochloride salt], for which the Ki is 28 nM.

Take `O=C(c1cc2cccc([N+](=O)[O-])c2[nH]1)N1C[C@H]2CCCN[C@H]2C1` (relative stereo) [Example 14, cis-(7-Nitro-1H-indol-2-yl)-(octahydro-pyrrolo[3,4-b]pyridin-6-yl)-methanone hydrochloride salt]: the inhibitory constant (Ki) was more than 10000 nM.

Turning to `O=C(c1cc2c(F)cc(F)cc2[nH]1)N1C[C@H]2CCCN[C@H]2C1` (relative stereo) [Example 15, cis-(4,6-Difluoro-1H-indol-2-yl)-(octahydro-pyrrolo[3,4-b]pyridin-6-yl)-methanone hydrochloride salt], the Ki was 220 nM.

As to `CN1CCC[C@@H]2CN(C(=O)c3cc4ccccc4[nH]3)C[C@@H]21` (relative stereo) [Example 27, cis-(1H-Indol-2-yl)-(1-methyl-octahydro-pyrrolo[3,4-b]pyridin-6-yl)-methanone], the Ki was found to be 560 nM.

`CN1CCC[C@@H]2CN(C(=O)c3cc4cc(Cl)ccc4[nH]3)C[C@@H]21` (relative stereo) [Example 28, cis-(5-Chloro-1H-indol-2-yl)-(1-methyl-octahydro-pyrrolo[3,4-b]pyridin-6-yl)-methanone]: the inhibitory constant (Ki) was 240 nM.

In the case of `Cc1ccc2[nH]c(C(=O)N3C[C@H]4CCCN[C@H]4C3)cc2c1` (relative stereo) [Example 29, cis-(5-Methyl-1H-indol-2-yl)-(octahydro-pyrrolo[3,4-b]pyridin-6-yl)-methanone hydrochloride salt], the Ki came to 41 nM.

On to `O=C(c1cc2ccccc2[nH]1)N1C[C@@H]2C[C@H]1CN2` [Example 1, (S,S)-(2,5-Diaza-bicyclo[2.2.1]hept-2-yl)-(1H-indol-2-yl)-methanone hydrochloride salt], for which the inhibitory constant (Ki) stood at 1110 nM.

Consider `CN1C[C@@H]2C[C@H]1CN2C(=O)c1cc2ccccc2[nH]1` [Example 2, (S,S)-(1H-Indol-2-yl)-(5-methyl-2,5-diaza-bicyclo[2.2.1]hept-2-yl)-methanone], for which the inhibition constant Ki amounted to 3200 nM.

Consider `CNC1CCN(C(=O)c2cc3ccccc3[nH]2)C1` (centres unmarked) [Example 3, (1H-Indol-2-yl)-(3-methylamino-pyrrolidin-1-yl)-methanone trifluoroacetic acid salt], for which the inhibitory constant (Ki) turned out to be 430 nM.

Consider `CN[C@@H]1CCN(C(=O)c2cc3ccccc3[nH]2)C1` [Example 4, (R)-(1H-Indol-2-yl)-(3-methylamino-pyrrolidin-1-yl)-methanone hydrochloride salt], for which the inhibition constant Ki turned out to be 160 nM.

Turning to `O=C(c1cc2ccccc2[nH]1)N1C[C@@H]2CCCN[C@@H]2C1` [Example 6, (S,S)-(1H-Indol-2-yl)-(octahydro-pyrrolo[3,4-b]pyridin-6-yl)-methanone trifluoroacetic acid salt], the inhibitory constant (Ki) was more than 10000 nM.

On to `CN[C@@H]1CCN(C(=O)c2cc3cc(Cl)ccc3[nH]2)C1` [Example 8, (R)-(5-Chloro-1H-indol-2-yl)-(3-methylamino-pyrrolidin-1-yl)-methanone], for which the inhibitory constant (Ki) is 53 nM.

Regarding `CN[C@H]1CCN(C(=O)c2cc3cc(Cl)ccc3[nH]2)C1` [Example 9, (S)-(5-Chloro-1H-indol-2-yl)-(3-methylamino-pyrrolidin-1-yl)-methanone], the inhibitory constant (Ki) is 540 nM.

In the case of `O=C(c1cc2cc(Cl)ccc2[nH]1)N1C[C@H]2CCCN[C@H]2C1` [Example 11, (R,R)-(5-Chloro-1H-indol-2-yl)-(octahydro-pyrrolo[3,4-b]pyridin-6-yl)-methanone hydrochloride salt], the Ki amounted to 27 nM.

`O=C(c1cc2cc(Cl)ccc2[nH]1)N1C[C@@H]2CCCN[C@@H]2C1` [Example 12, (S,S)-(5-Chloro-1H-indol-2-yl)-(octahydro-pyrrolo[3,4-b]pyridin-6-yl)-methanone hydrochloride salt]: the inhibition constant (Ki) was more than 10000 nM.

On to `O=C(c1cc2cc(Cl)ccc2[nH]1)N1C[C@@H]2CCCN[C@@H]2C1` [Example 12A, (S,S)-(5-Chloro-1H-indol-2-yl)-(octahydro-pyrrolo[3,4-b]pyridin-6-yl)-methanone], for which the Ki worked out at 180 nM.

For the compound `CN[C@H]1CCN(C(=O)c2cc3cc(F)ccc3[nH]2)C1` [Example 16, (S)-(5-Fluoro-1H-indol-2-yl)-(3-methylamino-pyrrolidin-1-yl)-methanone], the Ki was determined as 680 nM.

Take `CN[C@@H]1CCN(C(=O)c2cc3cc(F)ccc3[nH]2)C1` [Example 17, (R)-(5-Fluoro-1H-indol-2-yl)-(3-methylamino-pyrrolidin-1-yl)-methanone]: the Ki is 38 nM.

With `CN[C@H]1CCN(C(=O)c2cc3cccc(C)c3[nH]2)C1` [Example 18, (S)-(3-Methylamino-pyrrolidin-1-yl)-(7-methyl-1H-indol-2-yl)-methanone], the Ki is more than 10000 nM.

Consider `CN[C@@H]1CCN(C(=O)c2cc3cccc(C)c3[nH]2)C1` [Example 19, (R)-(3-Methylamino-pyrrolidin-1-yl)-(7-methyl-1H-indol-2-yl)-methanone], for which the Ki worked out at 150 nM.

For `CN[C@H]1CCN(C(=O)c2cc3cc(C)ccc3[nH]2)C1` [Example 20, (S)-(3-Methylamino-pyrrolidin-1-yl)-(5-methyl-1H-indol-2-yl)-methanone], the Ki is more than 10000 nM.

In the case of `CN[C@@H]1CCN(C(=O)c2cc3cc(C)ccc3[nH]2)C1` [Example 21, (R)-(3-Methylamino-pyrrolidin-1-yl)-(5-methyl-1H-indol-2-yl)-methanone], the inhibition constant (Ki) was found to be 280 nM.

`CN[C@H]1CCN(C(=O)c2cc3c(F)cc(F)cc3[nH]2)C1` [Example 22, (S)-(4,6-Difluoro-1H-indol-2-yl)-(3-methylamino-pyrrolidin-1-yl)-methanone]: the Ki is more than 5000 nM.

Turning to `CN[C@@H]1CCN(C(=O)c2cc3c(F)cc(F)cc3[nH]2)C1` [Example 23, (R)-(4,6-Difluoro-1H-indol-2-yl)-(3-methylamino-pyrrolidin-1-yl)-methanone], the inhibition constant Ki was 680 nM.

For `NC1CCN(C(=O)c2cc3cc(Cl)ccc3[nH]2)C1` (centres unmarked) [Example 24, (3-Amino-pyrrolidin-1-yl)-(5-chloro-1H-indol-2-yl)-methanone hydrochloride salt], the inhibition constant Ki came to 190 nM.

Turning to `CN(C)C1CCN(C(=O)c2cc3cc(Cl)ccc3[nH]2)C1` (centres unmarked) [Example 25, (5-Chloro-1H-indol-2-yl)-(3-dimethylamino-pyrrolidin-1-yl)-methanone], the Ki was determined as 1160 nM.

In the case of `CN(C)C1CCN(C(=O)c2cc3ccccc3[nH]2)C1` (centres unmarked) [Example 26, (3-Dimethylamino-pyrrolidin-1-yl)-(1H-indol-2-yl)-methanone], the Ki amounted to 9000 nM.

In the case of `CNC1CCN(C(=O)c2nc3ccccc3[nH]2)C1` (centres unmarked) [Example 30, (1H-Benzoimidazol-2-yl)-(3-methylamino-pyrrolidin-1-yl)-methanone hydrochloride salt], the Ki turned out to be 2000 nM.

In the case of `CN(C)C1CCN(C(=O)c2nc3ccccc3[nH]2)C1` (centres unmarked) [Example 31, (1H-Benzoimidazol-2-yl)-(3-dimethylamino-pyrrolidin-1-yl)-methanone], the Ki was 8200 nM.
